Tested on: Bacillus subtilis
Assay: Colorimetric detection of water toxicity with Bacillus subtilis cultured in CM-Fe medium and potassium ferricyanide (Prussian blue, absorbance at 690 nm, 96-well plate)
Assay type: cell-based
Settings: bacterial suspension OD600=2, 8 mM potassium ferricyanide, 20 min reaction; for detection limit (toxicant concentration discerned with naked eyes by color difference): sample photographs
Protocol: The inhibition rate is specifically calculated as: Inhibition %=(1−Abstox/Abscon)×100(1); • wherein, Abstox represents the peak value of the ultraviolet absorption spectrum of the sample to be detected at 690 nm, and Abscon represents the peak value of the ultraviolet absorption spectrum of the standard sample at 690 nm; • the IC50 value is calculated by: taking a concentration of toxicant in the water to be detected as the abscissa and the inhibition rate as the ordinate, drawing a curve, and fitting to obtain the IC50 value.
20 g of glucose, 15 g of peptone, 5 g of NaCl, 0.5 g of yeast extract and 0.001-10 g of ferric citrate were weighed, mixed and ground into powder by a dry grinding method in a ball mill to obtain a new culture medium CM-Fe.
1-100 g of CM and 1-100 g of CM-Fe culture media were added into two 1 L beakers respectively, adjusted to a volume of 1 L by adding deionized water, stirred, ultrasonicated, dissolved, and aliquoted in six 500 mL triangular flasks (3 for each culture medium), which were sealed with a sterile filtration sealing film, sterilized with high-temperature and high-pressure at 121° C. (98 kPa) for 5-40 min, and cooled down for later use.
Bacillus subtilis was inoculated into sterilized CM and CM-Fe culture media respectively, and cultured in a constant temperature shaker at 50-300 rpm at 37° C. for 8-30 h. The cultured bacterial liquid was centrifuged at 3000-10000 rpm for 1-20 min, then centrifuged and washed twice with 0.1-30% NaCl solution to remove the culture medium. Finally, Bacillus subtilis was resuspended in 0.1-30% NaCl solution and placed at 0-30° C. for later use.
100 μL of two suspensions of bacteria with OD600=2, 50 μL of Cu^2+ at varying concentrations and 50 μL of 8 mM potassium ferricyanide were mixed in the wells of a 96-well plate and reacted for 20 min. […] At low Cu^2+, concentrations, the color of the toxic samples was similar to that of the non-toxic samples. […] The final concentrations of toxicants from top to bottom were 0 mg/L, 0.49 mg/L, 0.98 mg/L, 1.95 mg/L, 3.9 mg/L, 7.8 mg/L and 15.63 mg/L, respectively. […]

SMILES | detection limit (toxicant concentration discerned with naked eyes by color difference) | IC20 fitted from inhibition rate curve (peak at 690 nm)
[Hg+2] [Hg^2+] | 0.49 mg/L | –
[Cu+2] [Cu^2+] | 3.9 mg/L | 2.4 µg/mL

— US20250298000A1, “PREPARATION OF CULTURE MEDIUM AND USE THEREFOR IN WATER TOXICITY CO[…]” (CHANGCHUN INSTITUTE OF APPLIED CHEMISTRY, CHINESE ACADEMY …, priority 2022, published 2025)
